The source of these data is patent publication US20230187019A1, “METHOD FOR DETERMINING A DRUG COMBINATION VIA A BLOCKING MODEL OF A MULTI-SITE-TARGETED PROTEIN AND APPLICATIONS THEREOF” (National Tsing Hua University, priority 2021, published 2023).

The subject of one series is shCtrl/HCT116. As to the kind of experiment: Cell viability assay on shCtrl/HCT116 (control strain). The note with it: 20 μM drug, C strain; for viability at 20 µM: Homo sapiens, HCT-116, remaining viability, read-out: shCtrl/HCT116 Cell Viability; for shCtrl/HCT116 Cell Viability: remaining viability. The series is classed as cell-based, human.
In another series the test system is AK4.4. The experiment in a line: Cell viability assay (MTT) on AK4.4. The note with it: for IC50: Mus musculus.
In series [1] the target is ATG4B (Homo sapiens, UniProt Q9Y4P1). The experiment in a line: In vitro cleavage assay of ATG4B catalytic activity (western blot of tagged LC3B). The note with it: read-out: inhibition on ATG4B's catalytic activity. Type of series: biochemical.
The test system of another series is HCT116. The experiment in a line: Cell viability assay on HCT116. Type of series: cell-based, human. The note with it: for viability at 20 µM: Homo sapiens, HCT-116, remaining viability, read-out: HCT116 Cell Viability.
The next series deals with AsPC-1. The experiment in a line: Cell viability assay (MTT) on AsPC-1. The note with it: for viability at 20 µM / IC50: Homo sapiens; for viability at 20 µM: ASPC1, read-out: AsPC-1 Cell Viability, remaining viability, 20 μM drug, normalized by blank control, three repeats.
The next series concerns shATG4B/HCT116. As to the kind of experiment: Cell viability assay on shATG4B/HCT116 (ATG4B silencing strain). The series is classed as cell-based, human. The conditions noted are these: for viability at 20 µM: Homo sapiens, HCT-116, remaining viability, read-out: shATG4B/HCT116 Cell Viability; for difference of cell viability inhibition between shATG4B/HCT116 (S strain) and shCtrl/HCT116 (C strain): Student's t-test, p-value <0.05.

The subject of series [2] is AK4.4 pancreatic ductal adenocarcinoma (PDAC) xenograft. The note with it: dose of 20 mg/kg, I.P.
For series [3] the following is noted: in vivo.
Series [4] addresses T1, ATG4B (Homo sapiens, UniProt Q9Y4P1).
T1 sequence (Q9Y4P1 whole entry, looked up): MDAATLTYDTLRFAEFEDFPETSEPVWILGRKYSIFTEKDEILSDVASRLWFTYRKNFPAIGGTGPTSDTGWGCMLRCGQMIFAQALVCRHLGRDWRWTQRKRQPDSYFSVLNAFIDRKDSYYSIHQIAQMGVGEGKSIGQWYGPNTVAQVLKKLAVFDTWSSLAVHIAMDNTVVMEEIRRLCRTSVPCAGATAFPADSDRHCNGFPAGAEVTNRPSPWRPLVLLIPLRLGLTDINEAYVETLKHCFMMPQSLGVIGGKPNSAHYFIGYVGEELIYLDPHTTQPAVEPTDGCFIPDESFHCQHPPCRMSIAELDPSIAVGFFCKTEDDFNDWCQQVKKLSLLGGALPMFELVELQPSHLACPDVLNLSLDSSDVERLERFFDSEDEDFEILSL
As to the kind of experiment: In vitro cleavage assay of ATG4B catalytic activity (western blot of tagged LC3B). Type of series: biochemical. (Immunoblotting shows a protein as a band on a membrane.)

In series [5] the target is T1, ATG4B. The experiment in a line: ATG4B activity reporter assay (cleaved PLA2 fluorescence). Type of series: biochemical. More on the design: host or cells: in silico model from PDB 2Z0D.
In series [6] the target is full-length fusion protein composed of C-Myc, pro-LC3B, and S-tag, Q9GZQ8.
[7] abbreviates: 20 μM drug, normalized by blank control, three repeats.
Setting [8] is: remaining viability, 20 μM drug, normalized by blank control, three repeats.
Where [9] appears, read: Tc concentration for 50% reduction of viability in combination with 0.50 μM Mx.
Where [10] appears, read: Tc concentration for 50% reduction of viability in combination with 1.00 μM Mx.
The mark [11] stands for this setting: Tc concentration for 50% reduction of viability in combination with 2.5 μM Vb.
The mark [12] stands for this setting: Tc concentration for 50% reduction of viability in combination with 5 μM Vb.
[13] abbreviates: Tc concentration for 50% reduction of viability in combination with 10 μM Vb.

Where two headings read alike, the source gives them in different places.

One may read the IC50 as the concentration that gives 50% inhibition. Broadly, the inhibition is how much of the control response was suppressed. With `Cc1ccc(C(=O)Nc2ccc(CN3CCN(C)CC3)c(C(F)(F)F)c2)cc1C#Cc1cnc2cccnn12` [Ponatinib], the viability at 20 µM stood at 21% in the series on shCtrl/HCT116; 19% in the series on HCT116 (setting [7]); 47% in the series on AsPC-1; 31% in the series with shATG4B/HCT116 (20 μM drug, S strain). Further, the “shCtrl/HCT116 Cell Viability” value with shCtrl/HCT116 is reported as 21.3 ± 0.6%. In addition, in the series on AK4.4 (read-out: IC50, Pn), the 50% inhibitory concentration (IC50) was 0.51 µM. For the same molecule, the inhibition at 5 µM on ATG4B [1] amounted to 30%. In addition, the “HCT116 Cell Viability” value in the series with HCT116 (setting [8]) is 18.5 ± 0.6%. In addition, the “AsPC-1 Cell Viability” value with AsPC-1 (setting [8]) is 47.2 ± 1.3%.

In the case of `CO[C@H]1C[C@@H]2CC[C@@H](C)[C@@](O)(O2)C(=O)C(=O)N2CCCC[C@H]2C(=O)O[C@H]([C@H](C)C[C@@H]2CC[C@@H](OC(=O)C(C)(CO)CO)[C@H](OC)C2)CC(=O)[C@H](C)/C=C(\C)[C@@H](O)[C@@H](OC)C(=O)[C@H](C)C[C@H](C)/C=C/C=C/C=C/1C` [Temsirolimus], the viability at 20 µM in the series with shCtrl/HCT116 was 50%; in the series on HCT116 (setting [7]) it was 52.1 ± 0.9%; in the series on AsPC-1, 69 ± 4.2%; with shATG4B/HCT116 (20 μM drug, S strain), 60%. Moreover, in the series with shCtrl/HCT116, the “shCtrl/HCT116 Cell Viability” value came to 49.5 ± 3.5%. The “inhibition of cell viability, significance” value in the series on AsPC-1 (20 μM, AsPC-1, p-value <0.05) was “statistically significant”. Further, the “difference of cell viability inhibition between shATG4B/HCT116 (S strain) and shCtrl/HCT116 (C strain)” value with shATG4B/HCT116 (listed as emsirolimus) is “significant differences”; in the series on shATG4B/HCT116 (listed as temsirolimus) it was “statistically significant”. Further, in the series on shATG4B/HCT116 (remaining viability, 20 μM drug, S strain), the “shATG4B/HCT116 Cell Viability” value was 60.5 ± 1.9%.

In the case of `Clc1ccc(C(Cn2ccnc2)OCc2ccsc2Cl)c(Cl)c1` (stereo not shown) [tioconazole], the “tumor size measured on day 16 versus control group” value in series [2] is reported as “less than half of the tumor size in the control group”. Further, the IC50 came to 14 µM in the series on AK4.4 (read-out: IC50, Tc, tioconazole alone, AK4.4 (Table 8)); 12.5 µM with AK4.4 (read-out: IC50, Tc, tioconazole alone, AK4.4 (Table 11)); 13 µM with AK4.4 (read-out: IC50, Tc, tioconazole alone, AK4.4 (Table 12)); 13.5 µM in the series with AsPC-1 (ASPC1, read-out: IC50, Tc, tioconazole alone, AsPC-1 (Table 9)); 9.61 µM in the series with AsPC-1 (ASPC1, read-out: IC50, Tc, tioconazole alone, AsPC-1 (Table 13)). Further, the “CTc, 50” value with AK4.4 (Tc concentration for 50% reduction of viability in combination with 0.05 μM Pn) turned out to be 12.31 µM; with AK4.4 (Tc concentration for 50% reduction of viability in combination with 0.1 μM Pn) it was 11.85 µM; with AK4.4 (Tc concentration for 50% reduction of viability in combination with 0.25 μM Pn), 5.86 µM; with AK4.4 (setting [9]) it was 13.42 µM; with AK4.4 (Tc concentration for 50% reduction of viability in combination with 0.5 μM Pn) it was 0.17 µM; with AK4.4 (setting [10]), 4.21 µM. For the same molecule, the “CTc, 50” value with AK4.4 (setting [11]) worked out at 12.07 µM; in the series with AK4.4 (setting [12]) it was 8.43 µM; in the series with AK4.4 (setting [13]), 5.88 µM; with AsPC-1 (setting [9]), 8.61 µM; with AsPC-1 (setting [10]) it was 7.83 µM; in the series with AsPC-1 (Tc concentration for 50% reduction of viability in combination with 1.25 μM Mx), 5.65 µM. In addition, the “CTc, 50” value is 8.14 µM with AsPC-1 (setting [11]), 6.32 µM with AsPC-1 (setting [12]) and 5.21 µM in the series with AsPC-1 (setting [13]). Further, in the series with HCT116 (human, 10 μM), the “decrease of cell viability of HCT116” value is on record as 33%. For the same molecule, the “liver weight, % of mouse body weight” value in series [3] is 5.69%. For the same molecule, in series [3] (mouse), the “increase in the liver (relative organ weight)” value is recorded as 8%. In addition, the “increase in triglyceride as compared to the control” value in series [3] (mouse) was 25%. This molecule also gave a triglyceride in series [3] (mouse) of 198.2 mg/dL.

Regarding Ac-YDTLGIF-NH2 [N-term-7], in the series with ATG4B [4] (1 μM peptide), the “inhibition to ATG4B activity at lower peptide concentration” value is “maintained”. Besides, the “inhibition to ATG4B activity” value with ATG4B [4] (ATG4B cleavage assays, 10 μM peptide) was “about 30%”.

With Ac-YDTLRFAEF-NH2 [N-term-9], in the series with ATG4B [5] (1 μM peptide), the “inhibition to ATG4B activity at lower peptide concentration” value is reported as “maintained”. For the same molecule, the “inhibition to ATG4B activity” value with ATG4B [5] (ATG4B activity reporter assays, 10 μM peptide) is roughly 25%.

B1: autophagy related 4B cysteine peptidase (ATG4B) (protein)
chain: MDAATLTYDTLRFAEFEDFPETSEPVWILGRKYSIFTEKDEILSDVASRLWFTYRKNFPAIGGTGPTSDTGWGCMLRCGQMIFAQALVCRHLGRDWRWTQRKRQPDSYFSVLNAFIDRKDSYYSIHQIAQMGVGEGKSIGQWYGPNTVAQVLKKLAVFDTWSSLAVHIAMDNTVVMEEIRRLCRTSVPCAGATAFPADSDRHCNGFPAGAEVTNRPSPWRPLVLLIPLRLGLTDINEAYVETLKHCFMMPQSLGVIGGKPNSAHYFIGYVGEELIYLDPHTTQPAVEPTDGCFIPDESFHCQHPPCRMSIAELDPSIAVGFFCKTEDDFNDWCQQVKKLSLLGGALPMFELVELQPSHLACPDVLNLSLDSSDVERLERFFDSEDEDFEILSL
For B1, in series [6], the “cleavage of recombinant pro-LC3B (S-tag band on western blot)” value was “P: positive control, pro-LC3 mixed with ATG4B, and the cleavage by ATG4B resulting in the lighter band for S-tag”; the normalized S-tag band intensity (LICOR; divided by the negative control N) of lane P, no peptide, blot of the N7 series, ATG4B cleavage assay came out at 0.3; the normalized S-tag band intensity (divided by the negative control N) of lane P, no peptide, blot of the N18 series, ATG4B cleavage assay came out at 0.3; the normalized S-tag band intensity (image J; divided by the negative control N) of lane P, no peptide, blot of the N7 series, ATG4B cleavage assay came to 0.4.
